# Test results reported in patent publication US20060234919A1, “Use” (priority 2001, published 2006).
# Like-named read-outs stand apart in the source and are kept apart here.
# Columns and labels:
# [1] = tested on: ischaemic musculocutaneous skin flaps; conditions: previously shown by the inventors, cited from earlier work
# xylene-induced cystitis = assay: xylene-induced cystitis, plasma protein extravasation (Evans blue); assay type: in vivo, rat; conditions: 1 mg/ml s.c. 1 h before xylene; 2 h after instillation; xylene alone 13.21±3.68; p<0.01
# Experimental: Rats were anaesthetised with pentobarbital sodium and phenobarbitone sodium as above. Following i. v. injection of Evans blue (20 mg/kg, i. v.), the urinary bladder was cannulated via the urethra using a polyethylene tubing and […] xylene (30% v/v in silicone oil) were instilled within 10 s. The cannula was then left in place for a further period of 10 s. Two hours later, the animals were injected with an overdose of pentobarbitone sodium and the bladder was removed. Evans blue was extracted by incubation of the tissue in 4 ml formamide for 24 h at 55° C. for subsequent photometric measurements at 620 nm.
# Plasma protein extravasation in the urinary bladder of anaesthetised rats was made 2 h after intravesical instillation of 30% (v/v) xylene […]. Control animals were treated with appropriate volumes of the vehicles ([…] silicone oil or 4 ml/kg 154 mmol/l NaCl solution, respectively). Oxytocin (1 mg/ml) was injected s. c. 1 h before administration of xylene or cyclophosphamide while control rats received DMSO (0.5 ml/kg, s. c.). Plasma protein extravasation is given as total tissue content of the protein marker, Evans blue, given i. v. (20 mg/kg) 5 min prior to the induction of cystitis.
# Oxytocin was dissolved and diluted in DMSO for all experiments involving s. c. injection in volumes of 1.0 ml/kg. […]
# N-acetyl-LTE4 = assay: OVA-induced N-acetyl-LTE4 synthesis in BN rats (experimental asthma model); assay type: in vivo, rat; conditions: for biliary excretion of N-acetyl-LTE4: 1.0 mg/kg by aerosol
# Experimental: Inbred male BN rats, 7-9 weeks old, were obtained from Harlan Sprague-Dawley. Active sensitisation was performed by subcutaneous injection of 1 ml of saline containing 1 mg of ovalbumin and 3.48 mg of aluminum hydroxide. At the same time, 0.3 ml of Bordetella pertussis vaccine containing heat-killed organisms was given intraperitoneally as an adjuvant. Animals were studied 14-21 days after sensitisation.
# Two groups of rats (n=3 for each group) were lightly anaesthetised with xylazine (7 mg/kg) and pentobarbital (30 mg/kg ip) before endotracheal intubation. Each rat then received either saline or 1.0 mg/kg oxytocin (1.0 mg/ml) by aerosol over a period of 5 min using a disposable nebulizer at a flow rate of […] and an output of 0.15 ml/min. Seventeen hours later, the animals were again anaesthetised, and these treatments were repeated. After a further hour, each of the rats was challenged with aerosolised 5% OVA in saline for 5 min.
# Before the second treatment with oxytocin or saline, the rats were anaesthetised with urethane (1 g/kg ip, 50% wt/vol). After blind orotracheal intubation (6 cm of PE-240 polyethylene catheter), the common bile duct was exposed and cannulated (15 cm of PE-20 polyethylene tubing) after ligation of duodenal end. The rats were allowed to stabilise for a period of 2 h before challenge with OVA. Bile was collected for 1 h before and for 2 consecutive periods of 1 h after OVA challenge ([…]). All bile samples were collected on ice in 1.5-ml Eppendorf tubes. The bile was kept frozen at […] before analysis.
# Bile samples were thawed, and methanol was added to 0.3-ml aliquots to give a final concentration of 80%. […] Ultraviolet absorbance was monitored by a variable wavelength ultraviolet detector. […]
# Column fractions were evaporated to dryness in a centrifuge under vacuum, and the residues were dissolved in phosphate-buffered saline (0.1 ml at pH 8.2). N-acetyl-LTE4 was measured in each fraction by using a monoclonal antibody directed against LTC4, which cross-reacted with N-acetyl-LTE4. […]
# [2] = tested on: caerulein-induced pancreatitis; assay: caerulein-induced pancreatitis, pancreatic edema; assay type: in vivo, rat; conditions: subcutaneous pre-treatment 1 mg/ml; caerulein alone 8.11±0.96, control 3.12±0.52
# Experimental: Caerulein-induced pancreatitis: Female Sprague-Dawley rats (200-250 g) were anaesthetized with pentobarbitone sodium and phenobarbitone sodium (each 40 mg/kg, i.p.). The cholecystokinin analogue caerulein (8 nmol/kg in 2 h) was infused via one jugular vein for exocrine hyperstimulation and induction of acute edematous pancreatitis (Lampel M, Kern H F. Acute interstitial pancreatitis in the rat in-duced by excessive doses of a pancreatic secretagogue. Virchows Arch (Pathol Anat) 1997; 373: 97-117), while control animals were infused with a corresponding volume (4 ml/kg/h) of phosphate-buffered saline. Pre-treatment with the kininase II inhibitor captopril ([…], i. p.) was given 30 min prior to the infusion of caerulein. At the end of the experiment, the animals were sacrificed with an overdose of pentobarbital sodium. The pancreatic tissue was dried for 16 h in a vacuum centrifuge and the edema was quantified as fluid wt. per dry wt. of the tissue. For the determination of lipase activity in serum, the blood was collected following decapitation in separate groups of rats. The pancreas of these animals was excised an placed immediately into 2 ml of a 154 mmol/l solution of NaCl. After centrifugation at 2×10^5 m/s^2 for 25 min the supernatant was stored at −80° C. All samples were assayed for lipase activity (lipase test Boehringer Mannheim, Germany).
substance,measurement,setting,value
Oxytocin,survival of ischaemic musculocutaneous skin flaps,[1]; 1 μg/kg i.c.v.,increases the survival
same,survival of ischaemic musculocutaneous skin flaps,[1]; 1 mg/kg s.c.,induced the same effect
same,"plasma protein extravasation, total Evans blue content of the urinary bladder",xylene-induced cystitis,5.14 ± 2.58 mg
same,biliary excretion of N-acetyl-LTE4,"N-acetyl-LTE4; early response 0-1 h after OVA challenge, control 6.9±1.8",4.3 ± 2.1 pmol/h
same,biliary excretion of N-acetyl-LTE4,"N-acetyl-LTE4; late response 5-6 h after OVA challenge, control 5.2±0.9",2.6 ± 0.8 pmol/h
same,levels of N-acetyl-LTE4 in oxytocin-treated vs control groups,N-acetyl-LTE4; before OVA challenge,almost identical
same,water content of the pancreatic tissue (edema formation),[2],5.25±0.68 g/g d. wt.
